Measurements from ChEMBL document CHEMBL4219152, “Design, synthesis, biological evaluation, homology modeling and docking studies of (E)-3-(benzo[d][1,3]dioxol-5-ylmethylene) pyrrolidin-2-one derivatives as potent anticonvulsant agents” (Bioorg Med Chem Lett, 2018).
Activity calls are given as the source filed them. The rule behind the calls is not given here.

Legend:
Mus musculus [1] = experiment: Anticonvulsant activity in Kunming mouse assessed as protection against subcutaneously injected metrazol-induced seizures at 300 mg/kg, ip after 4 hrs; assay type: functional, organism-based
Mus musculus [2] = species: Mus musculus; experiment: Neurotoxicity in Kunming mouse assessed as motor impairment by measuring reduction in time spent on rotarod after 0.5 hrs by rotarod test; assay type: toxicity, organism-based; settings: in vivo
Mus musculus [3] = species: Mus musculus; experiment: Neurotoxicity in Kunming mouse assessed as motor impairment by measuring reduction in time spent on rotarod after 4 hrs by rotarod test; assay type: toxicity, organism-based; settings: in vivo
Mus musculus [4] = experiment: Anticonvulsant activity in ip dosed Kunming mouse assessed as minimum dose required to protect maximal electroshock-induced seizures in mouse measured after 0.5 hrs; assay type: functional; settings: read-out: MED
Mus musculus [5] = experiment: Anticonvulsant activity in Kunming mouse assessed as protection against maximal electroshock-induced seizures in mouse at 300 mg/kg, ip measured after 4 hrs; assay type: functional, organism-based
Mus musculus [6] = experiment: Anticonvulsant activity in Kunming mouse assessed as protection against subcutaneously injected metrazol-induced seizures at 300 mg/kg, ip measured after 0.5 hrs; assay type: functional, organism-based
Mus musculus [7] = experiment: Anticonvulsant activity in ip dosed Kunming mouse assessed as minimum dose required to protect maximal electroshock-induced seizures in mouse measured after 4 hrs; assay type: functional; settings: read-out: MED
Mus musculus [8] = experiment: Anticonvulsant activity in Kunming mouse assessed as protection against maximal electroshock-induced seizures in mouse at 300 mg/kg, ip measured after 0.5 hrs; assay type: functional, organism-based
Mus musculus [9] = experiment: Anticonvulsant activity in ip dosed Kunming mouse assessed as protection against subcutaneously injected metrazol-induced seizures after 0.5 hrs; assay type: functional; settings: read-out: MED
Nav1.1 = Nav1.1 (Homo sapiens, UniProt P35498); experiment: Inhibition of human Nav1.1 expressed in CHO-K1 cells assessed as state-dependent block at 10 uM at holding potential of -120 mV incubated for 30 mins prior to testing measured every 20 seconds by whole-cell patch clamp method; assay type: cell-based; settings: CHO-K1 cells expressing human Nav1.1
[10] = Neurotoxicity in ip dosed Kunming mouse assessed as motor impairment by measuring reduction in time spent on rotarod; assay type: toxicity, organism-based; settings: in vivo
[11] = molecular target: Sodium channel protein type 1 subunit alpha (Homo sapiens) (UniProt P35498); experiment: Inhibition of human Nav1.1 expressed in CHO-K1 cells assessed as use-dependent block at 10 uM at holding potential of -120 mV incubated for 30 mins prior to testing measured every 20 seconds by whole-cell patch clamp method; assay type: cell-based
Mus musculus [12] = experiment: Anticonvulsant activity in ip dosed Kunming mouse assessed as minimum dose required to protect maximal electroshock-induced seizures in mouse by measuring time to peak effect; assay type: functional
Mus musculus [13] = experiment: Anticonvulsant activity in ip dosed Kunming mouse assessed as protection against maximal electroshock-induced seizures; assay type: functional
[14] = Protection index, ratio of TD50 for neurotoxicity by motor impairment in Kunming mouse to ED50 for protection against maximal electroshock-induced seizures in ip dosed Kunming mouse; assay type: toxicity, organism-based; settings: in vivo, read-out: Ratio TD50/ED50

O=C1/C(=C/c2ccc3c(c2)OCO3)CCN1Cc1ccc(F)cc1
Activity (Mus musculus [1]): inactive
MLD (Mus musculus [2]): 300 mg/kg
MLD (Mus musculus [3]): 300 mg/kg
minimal effective dose (Mus musculus [4]): 30 mg/kg
Activity (Mus musculus [5]): inactive
Activity (Mus musculus [6]): inactive

Cc1ccccc1CN1CC/C(=C\c2ccc3c(c2)OCO3)C1=O
minimal effective dose (Mus musculus [7]): 30 mg/kg
Activity (Mus musculus [8]): inactive
Activity (Mus musculus [1]): inactive
MLD (Mus musculus [2]): 300 mg/kg
minimal effective dose (Mus musculus [9]): 100 mg/kg
MLD (Mus musculus [3]): 300 mg/kg

O=C1/C(=C/c2ccc3c(c2)OCO3)CCN1Cc1ccccc1Cl
Activity (Mus musculus [8]): inactive
Activity (Mus musculus [1]): inactive
MLD (Mus musculus [2]): 300 mg/kg
minimal effective dose (Mus musculus [9]): 100 mg/kg
MLD (Mus musculus [3]): 300 mg/kg
Activity (Mus musculus [5]): inactive

O=C1/C(=C/c2ccc3c(c2)OCO3)CCN1Cc1cccc(C(F)(F)F)c1
inhibition at 0.5 h, 10 µM (Nav1.1): 19.5%
minimal effective dose (Mus musculus [7]): 30 mg/kg
Activity (Mus musculus [1]): inactive
TD50 [10]: 161 mg/kg
MLD (Mus musculus [2]): 300 mg/kg
MLD (Mus musculus [3]): 300 mg/kg
inhibition [11]: 99.9%
minimal effective dose (Mus musculus [4]): 30 mg/kg
Time (Mus musculus [12]): 1 h
ED50 (Mus musculus [13]): 4.3 mg/kg
selectivity ratio [14]: 37.4
Activity (Mus musculus [6]): inactive

O=C1/C(=C/c2ccc3c(c2)OCO3)CCN1Cc1c(F)cccc1F
minimal effective dose (Mus musculus [7]): 100 mg/kg
Activity (Mus musculus [1]): inactive
MLD (Mus musculus [2]): 300 mg/kg
MLD (Mus musculus [3]): 300 mg/kg
minimal effective dose (Mus musculus [4]): 100 mg/kg
Activity (Mus musculus [6]): inactive

Cc1ccc(CN2CC/C(=C\c3ccc4c(c3)OCO4)C2=O)cc1
minimal effective dose (Mus musculus [7]): 30 mg/kg
Activity (Mus musculus [1]): inactive
TD50 [10]: 167 mg/kg
MLD (Mus musculus [2]): 300 mg/kg
MLD (Mus musculus [3]): 300 mg/kg
minimal effective dose (Mus musculus [4]): 30 mg/kg
Time (Mus musculus [12]): 1 h
ED50 (Mus musculus [13]): 6.3 mg/kg
selectivity ratio [14]: 26.5
Activity (Mus musculus [6]): inactive

O=C1/C(=C/c2ccc3c(c2)OCO3)CCN1Cc1cccc(F)c1
minimal effective dose (Mus musculus [7]): 30 mg/kg
Activity (Mus musculus [8]): inactive
Activity (Mus musculus [1]): inactive
MLD (Mus musculus [2]): 300 mg/kg
MLD (Mus musculus [3]): 300 mg/kg
Activity (Mus musculus [6]): inactive

O=C1NCC/C1=C\c1ccc2c(c1)OCO2
minimal effective dose (Mus musculus [7]): 100 mg/kg
Activity (Mus musculus [1]): inactive
TD50 [10]: 179 mg/kg
MLD (Mus musculus [2]): 300 mg/kg
MLD (Mus musculus [3]): 300 mg/kg
minimal effective dose (Mus musculus [4]): 30 mg/kg
Time (Mus musculus [12]): 1 h
ED50 (Mus musculus [13]): 17.3 mg/kg
selectivity ratio [14]: 10.4
Activity (Mus musculus [6]): inactive

O=C1NC(=O)C(c2ccccc2)(c2ccccc2)N1 [PHENYTOIN]
minimal effective dose (Mus musculus [7]): 30 mg/kg
Activity (Mus musculus [1]): inactive
MLD (Mus musculus [2]): 100 mg/kg
MLD (Mus musculus [3]): 100 mg/kg
minimal effective dose (Mus musculus [4]): 30 mg/kg
Time (Mus musculus [12]): 2 h
Activity (Mus musculus [6]): inactive

CC(C)(C)c1ccc(CN2CC/C(=C\c3ccc4c(c3)OCO4)C2=O)cc1
minimal effective dose (Mus musculus [7]): 100 mg/kg
Activity (Mus musculus [1]): inactive
MLD (Mus musculus [2]): 300 mg/kg
MLD (Mus musculus [3]): 300 mg/kg
minimal effective dose (Mus musculus [4]): 100 mg/kg
Activity (Mus musculus [6]): inactive

O=C1/C(=C/c2ccc3c(c2)OCO3)CCN1Cc1ccccc1F
minimal effective dose (Mus musculus [7]): 30 mg/kg
Activity (Mus musculus [1]): inactive
TD50 [10]: 238 mg/kg
MLD (Mus musculus [2]): 300 mg/kg
MLD (Mus musculus [3]): 300 mg/kg
minimal effective dose (Mus musculus [4]): 30 mg/kg
Time (Mus musculus [12]): 1 h
ED50 (Mus musculus [13]): 5.6 mg/kg
selectivity ratio [14]: 42.6
Activity (Mus musculus [6]): inactive

CCC1(c2ccccc2)C(=O)NC(=O)NC1=O [PHENOBARBITAL]
Time (Mus musculus [12]): 1 h
ED50 (Mus musculus [13]): 21.8 mg/kg
